Measurements taken from patent publication US7351855B2, “Chemically defined non-polymeric valency platform molecules and conjugates thereof” (La Jolla Pharmaceutical Company, priority 1993, dated 2008).
No end group written: not given here.

Columns and labels:
[1] = test system: cultured T cell from melittin-immunized mice; test: Murine lymph node proliferation assay ([3H]thymidine uptake); assay type: cell-based, Balb/c mice; conditions: T cells from mice primed with melittin; 10, 1.0 or 0.1 μg/mL; FIG. 8
Description: Femal Balb/c mic (6-8 weeks old; Jackson Laboratory, Bar Harbor, Me.) were obtained and housed at the La Jolla Pharmaceutical animal facility according to National Institutes of Health guidelines. Food and water was provided ad libitum. Balb/c mice were immunized in each hind footpad with 50 μg of melittin molecule in Complete Freund's Adjuvant (CFA) (Sigma Chemical Co., St. Louis, Mo.). Popliteal lymph nodes were harvested aseptically seven days later. Lymph nodes were gently dissociated by teasing the cells through a 50 mesh sieve screen. The single cell suspension was washed in RPMI-1640 (Irvine Scientific, Irvine Calif.) containing glutamine, penicillin and streptomycin. 5×10^5 cells in RPMI medium supplemented with 10% fetal bovine serum (FCS) in quadruplicate wells of round bottom 96-well Corning microtitration plates were-cultured with melittin or a melittin peptide at 10, 1.0 or 0.1 μg/mL. Cells in the positive control wells were cultured with murine interleukin 2 (IL-2) at 100 or 50 U/mL, PHA (phytohemagglutinin) at 1 μg/mL. The negative control wells contained lymph node cells in RPM-1640 and 10% FCS. The cells were cultured for 4 days in a 37° C. incubator with 5% CO2. Each well was pulsed with 1 μCi of [^3H]thymidine (ICN Biochemicals, Costa Mesa, Calif.) for an additional 18 hours. Cells were harvested onto a glass fiber filter mat using a semiautomatic cell harvester (Scatron, Sterling, Va.). Incorporation of [^3H]thymidine was determined by liquid scintillation. The results were expressed as average counts per minute.

peptide-specific pfc = test: pfc assay: melittin peptide-specific IgG pfc in spleens of mice primed and boosted with melittin; assay type: in vivo, C57BL/6 mice; conditions: Table 7
Description: Female C57BL/6 mice, ages 5 to 8 weeks were purchased from The Jackson Laboratory, Bar Harbor, Me. Animals were maintained and treated accordingly to National Institutes of Health guidelines.
Mice were primed by an i.p. injection containing 5 μg of melittin precipitated on alum and 2×10^9 B. pertussis (Michigan Department of Public Health, Lansing, Mich.) as an adjuvant. The mice were boosted with 5 μg of melittin, i.p., in PBS.
Sheep Red Blood Cells (SRBC) (Colorado Serum Co., Denver, Colo.) were conjugated with melittin-peptide […] using carbodiimide. Fresh SRBC (less than 2 weeks old) were washed four times with cold saline and one time with mannitol (0.35 M mannitol, 0.01 M NaCl). The SRBC were suspended in mannitol to a concentration of 10% (v/v). 100 μL of mannitol containing 30 μg of melittin peptide #3 were added to 1 mL aliquots of 10% SRBC which were then incubated on ice for 10 minutes. 100 μL of a 100 mg/mL solution of 1-ethyl-3 (3-dimethylaminopropyl)-carbodiimide HCl (EDCI) was then added and incubated on ice for 30 minutes. The SRBC were washed twice with Balanced Salt Solution (BSS) (Irvine Scientific Co, Irvine, Calif.) and resuspended to 10% (v/v). Lyophilized guinea pig complement (GIBCO, New York, N.Y.) was reconstituted with BSS and then diluted 1:3 with BSS. One mL of the diluted guinea pig complement was added to 3 mL of conjugated SRBC. Rabbit anti-mouse IgG was added to give a final dilution of 1:100 of the rabbit antiserum. This concentration was predetermined to inhibit all IgM pfc while enhancing the maximum number of IgG pfc. An equal volume of this complement/anti-mouse IgG/SRBC suspension was mixed with a cell suspension of mouse spleen cells taken from a single mouse. 50 μL of each mixture was transferred to the chambers of a Cunningham slide (three chambers per slide). The edges were then sealed with paraffin and incubated at 37° C. for one hour. The number of plaques per chamber was counted with the aid of a dissecting microscope. Each spleen suspension was also assayed using non-conjugated SRBC as a control. The number of viable cells, in each spleen cell suspension, was determined. The number of pfc per 10^6 spleen cells was determined for each chamber and the mean of the triplicates calculated. The number of pfc for non-conjugated SRBC was subtracted from the number of pfc for conjugated SRBC to determine the number of peptide-specific pfc.
Two different tolerogens were constructed to determine if the orientation of the peptide on the PEG conjugate affects its ability to induce tolerance. The peptide was covalently bound to valency platform molecule 3 through its C-terminal end to make melittin conjugate 3. Groups (3/group) of mice primed with melittin were treated, i.p., with conjugates or with saline. Five days later all of the mice, including the non-treated control group, were boosted with […] of melittin. Six days later the mice were sacrificed, their spleens were harvested and the number of peptide specific pfc determined. As-illustrated in Table 8, both orientations were effective in reducing the number of peptide-specific pfc/10^6 spleen cells in mice primed and boosted with the parent protein Melittin.
Three different conjugates, each with a different number of peptides per PEG conjugate, were constructed to determine if the ratio of peptides to PEG molecule was important. Conjugate 1 had only two peptides per PEG conjugate. Another had four peptides per PEG conjugate (Conjugate 2). The third had eight peptides per PEG conjugate (Conjugate 5). Groups (3/group) of mice primed with melittin were treated, i.p., with the different conjugates or with saline. Five days later all of the nice, including the non-treated control group, were boosted with 5 μg of melittin. Six days later, the mice were sacrificed, their spleens were harvested and the number of peptide-specific pfc determined.

Compound | T cell proliferation (in words) [1] | also measured
CC[C@H](C)[C@H](NC(=O)CN)C(=O)NCC(=O)N[C@@H](C)C(=O)N[C@H](C(=O)N[C@@H](CC(C)C)C(=O)N[C@@H](CCCCN)C(=O)N[C@H](C(=O)N[C@@H](CC(C)C)C(=O)N[C@H](C(=O)N[C@H](C(=O)NCC(=O)N[C@@H](CC(C)C)C(=O)N1CCC[C@H]1C(=O)N[C@@H](C)C(=O)N[C@@H](CC(C)C)C(=O)N[C@H](C(=O)N[C@@H](CO)C(=O)N[C@@H](Cc1c[nH]c2ccccc12)C(=O)N[C@H](C(=O)N[C@@H](CCCCN)C(=O)N[C@@H](CCCNC(=N)N)C(=O)N[C@@H](CCCCN)C(=O)N[C@@H](CCCNC(=N)N)C(=O)N[C@@H](CCC(N)=O)C(=O)N[C@@H](CCC(N)=O)C(N)=O)[C@@H](C)CC)[C@@H](C)CC)[C@@H](C)O)[C@@H](C)O)C(C)C)C(C)C [Melittin, reference compound] | showed T cell proliferation | –
Cys-Ile-Ser-Trp-Ile-Lys-Arg-Lys-Arg-Gln-Gln-Gly (CISWIKRKRQQG; printed: Cys-Ile-Ser-Trp-Ile-Lys-Arg-Lys-Arg-Gln-Gln-Gly) [Melittin Peptide #5] | showed T cell proliferation | –
IKRKRQQG [Melittin Peptide #1] | no significant T cell proliferation | –
Ile-Ser-Trp-Ile-Lys-Arg-Lys-Arg-Gln-Gln-Gly (ISWIKRKRQQG; printed: Ile-Ser-Trp-Ile-Lys-Arg-Lys-Arg-Gln-Gln-Gly) [Melittin Peptide #4] | showed T cell proliferation | –
N,N′-Bis-(3,5-bis-(iodoacetamido)benzoyl) derivative of α,ω-bis-(N-2-aminoethylcarbamoyl)polyethyleneglycol [Compound 3] | – | % Reduction (peptide-specific pfc; 250 μg/mouse i.p.): 67.3%; Peptide specific pfc per 10^6 spleen cells (Mean and S.D.) (peptide-specific pfc; 250 μg/mouse i.p.): 957 (298) pfc per 10^6 spleen cells; % Reduction (peptide-specific pfc; 500 μg/mouse i.p.): 83.3%; Peptide specific pfc per 10^6 spleen cells (Mean and S.D.) (peptide-specific pfc; 500 μg/mouse i.p.): 489 (one mouse) pfc per 10^6 spleen cells; % Reduction (peptide-specific pfc; 1000 μg/mouse i.p.): 86.8%; Peptide specific pfc per 10^6 spleen cells (Mean and S.D.) (peptide-specific pfc; 1000 μg/mouse i.p., boost 5 days later, spleens 6 days after boost): 386 (85) pfc per 10^6 spleen cells
SWIKRKRQQG [Melittin Peptide #3] | showed T cell proliferation | –
WIKRKRQQG [Melittin Peptide #2] | no significant T cell proliferation | –
